Reference: patent US8536354B2, “Steroidal ligands and their use in gene switch modulation” (Intrexon Corporation, priority 2008, dated 2013)
pEC50: −log10 of the molar value. Like-named read-outs stand apart in the source and are kept apart here.

Key:
[1] = target: wild-type Drosophila melanogaster EcR (DmEcR; GAL4-EcR DEF with VP16-RXR-USP chimera) (Drosophila melanogaster, UniProt P34021); assay: Two-hybrid gene switch assay, luciferase reporter, wild-type DmEcR, mouse NIH3T3 cells; type: cell-based; conditions: EC50, FIG. 14A/14B, GAL4-EcR(DEF) with VP16-RXR-USP chimera
Sequence of wild-type Drosophila melanogaster EcR (DmEcR; GAL4-EcR DEF with VP16-RXR-USP chimera) (P34021 with tags, fused parts or gaps limits assumed): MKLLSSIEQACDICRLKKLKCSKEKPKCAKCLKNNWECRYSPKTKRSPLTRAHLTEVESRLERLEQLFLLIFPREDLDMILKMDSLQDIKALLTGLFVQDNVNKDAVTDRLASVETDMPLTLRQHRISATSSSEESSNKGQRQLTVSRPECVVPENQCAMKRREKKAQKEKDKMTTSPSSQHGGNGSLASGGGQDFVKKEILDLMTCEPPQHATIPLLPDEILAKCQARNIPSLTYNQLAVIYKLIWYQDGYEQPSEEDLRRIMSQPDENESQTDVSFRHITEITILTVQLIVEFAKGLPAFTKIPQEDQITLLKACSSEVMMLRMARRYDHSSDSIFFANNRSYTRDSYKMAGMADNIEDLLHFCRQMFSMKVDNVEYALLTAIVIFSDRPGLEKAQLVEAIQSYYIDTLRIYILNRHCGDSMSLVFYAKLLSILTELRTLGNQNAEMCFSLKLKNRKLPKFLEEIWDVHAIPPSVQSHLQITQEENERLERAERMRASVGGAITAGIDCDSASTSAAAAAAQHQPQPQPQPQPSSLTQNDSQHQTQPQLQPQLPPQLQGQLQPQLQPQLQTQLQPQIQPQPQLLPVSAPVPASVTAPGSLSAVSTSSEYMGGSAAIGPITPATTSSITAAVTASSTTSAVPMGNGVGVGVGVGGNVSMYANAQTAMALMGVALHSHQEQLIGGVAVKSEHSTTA

[2] = target: BmEcR (GAL4-EcR DEF with VP16-RXR-USP chimera) (Bombyx mori, UniProt P49881); assay: Two-hybrid gene switch assay, luciferase reporter, BmEcR, mouse NIH3T3 cells; type: cell-based
Sequence of BmEcR (GAL4-EcR DEF with VP16-RXR-USP chimera) (P49881 other isoform, or with tags, fused parts or gaps, change not shown): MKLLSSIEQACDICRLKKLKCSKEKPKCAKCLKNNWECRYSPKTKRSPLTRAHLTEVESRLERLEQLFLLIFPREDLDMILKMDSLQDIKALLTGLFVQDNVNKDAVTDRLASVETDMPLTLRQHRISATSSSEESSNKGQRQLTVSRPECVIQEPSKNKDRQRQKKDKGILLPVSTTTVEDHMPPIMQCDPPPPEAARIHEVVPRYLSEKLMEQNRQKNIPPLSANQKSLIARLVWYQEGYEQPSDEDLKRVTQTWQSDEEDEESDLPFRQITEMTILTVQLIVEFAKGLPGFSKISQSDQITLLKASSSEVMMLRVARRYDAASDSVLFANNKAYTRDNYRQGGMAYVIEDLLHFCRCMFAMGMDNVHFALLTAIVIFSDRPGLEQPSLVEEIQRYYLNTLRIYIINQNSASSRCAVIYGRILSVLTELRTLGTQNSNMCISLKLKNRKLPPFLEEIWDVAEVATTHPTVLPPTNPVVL

[3] = target: T1, MsEcR (GAL4-EcR DEF with VP16-RXR-USP chimera) (Manduca sexta, UniProt P49883); assay: Two-hybrid gene switch assay, luciferase reporter, MsEcR, mouse NIH3T3 cells; conditions: EC50, FIG. 13A/13B, GAL4-EcR(DEF) with VP16-RXR-USP chimera
T1 sequence (P49883 1-556): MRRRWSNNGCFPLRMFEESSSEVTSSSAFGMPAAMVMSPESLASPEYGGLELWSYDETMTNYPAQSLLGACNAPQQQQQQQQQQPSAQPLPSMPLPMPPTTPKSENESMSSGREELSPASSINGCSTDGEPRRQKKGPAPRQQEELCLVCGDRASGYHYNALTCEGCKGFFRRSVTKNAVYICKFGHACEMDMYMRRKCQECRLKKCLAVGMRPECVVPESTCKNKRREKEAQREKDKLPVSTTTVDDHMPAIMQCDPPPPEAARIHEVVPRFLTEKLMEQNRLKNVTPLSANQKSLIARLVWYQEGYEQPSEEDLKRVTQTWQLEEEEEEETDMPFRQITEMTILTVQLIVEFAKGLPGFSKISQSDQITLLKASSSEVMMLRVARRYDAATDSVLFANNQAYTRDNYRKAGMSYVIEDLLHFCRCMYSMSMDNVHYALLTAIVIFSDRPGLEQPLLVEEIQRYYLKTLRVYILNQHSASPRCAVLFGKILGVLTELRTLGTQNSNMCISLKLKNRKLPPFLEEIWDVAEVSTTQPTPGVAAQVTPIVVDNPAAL
T1 sequence (P28702 1-533 partner): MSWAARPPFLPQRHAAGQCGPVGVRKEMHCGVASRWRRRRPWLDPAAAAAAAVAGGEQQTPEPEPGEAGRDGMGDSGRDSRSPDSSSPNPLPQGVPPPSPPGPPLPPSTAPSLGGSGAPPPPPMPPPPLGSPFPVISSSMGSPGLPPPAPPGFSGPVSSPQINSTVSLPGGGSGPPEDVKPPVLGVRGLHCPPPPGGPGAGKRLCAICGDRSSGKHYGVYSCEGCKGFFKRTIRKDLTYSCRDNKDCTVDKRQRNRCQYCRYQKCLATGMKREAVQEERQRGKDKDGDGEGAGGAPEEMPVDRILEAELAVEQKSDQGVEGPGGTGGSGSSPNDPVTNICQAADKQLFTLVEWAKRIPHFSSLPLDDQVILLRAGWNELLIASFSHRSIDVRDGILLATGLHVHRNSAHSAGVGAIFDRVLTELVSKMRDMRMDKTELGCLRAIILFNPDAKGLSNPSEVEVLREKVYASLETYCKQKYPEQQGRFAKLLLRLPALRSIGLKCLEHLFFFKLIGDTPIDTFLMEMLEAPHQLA

[4] = target: T2, BaEcR (GAL4-EcR DEF with VP16-RXR-USP chimera) (Bemisia tabaci, UniProt A0A6M3RDR8); assay: Two-hybrid gene switch assay, luciferase reporter, BaEcR, mouse NIH3T3 cells; conditions: EC50, FIG. 14A/14B, GAL4-EcR(DEF) with VP16-RXR-USP chimera
T2 sequence (A0A6M3RDR8 115-530): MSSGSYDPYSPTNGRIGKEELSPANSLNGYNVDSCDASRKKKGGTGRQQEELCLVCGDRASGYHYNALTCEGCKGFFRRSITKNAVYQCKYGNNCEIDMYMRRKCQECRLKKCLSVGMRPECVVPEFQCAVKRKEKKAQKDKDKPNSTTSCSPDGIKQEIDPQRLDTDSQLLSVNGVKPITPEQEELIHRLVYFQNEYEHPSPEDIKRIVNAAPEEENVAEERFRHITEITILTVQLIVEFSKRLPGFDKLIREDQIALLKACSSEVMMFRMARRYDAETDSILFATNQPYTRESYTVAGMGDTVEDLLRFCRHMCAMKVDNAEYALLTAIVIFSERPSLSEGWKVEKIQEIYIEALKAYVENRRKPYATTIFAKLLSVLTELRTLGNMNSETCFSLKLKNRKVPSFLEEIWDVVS
T2 sequence (P28702 1-533 partner): T1 sequence (P28702 1-533 partner)

[5] = test system: NcEcR (GAL4-EcR DEF with VP16-RXR partner); assay: Two-hybrid gene switch assay, luciferase reporter, NcEcR, mouse NIH3T3 cells; conditions: FIG. 14A/14B, GAL4-EcR(DEF)
[6] = target: T3, TmEcR (GAL4-EcR DEF with VP16-RXR partner) (Tenebrio molitor, UniProt O02035); assay: Two-hybrid gene switch assay, luciferase reporter, TmEcR, mouse NIH3T3 cells; conditions: EC50, FIG. 14A/14B, GAL4-EcR(DEF)
T3 sequence (O02035 194-491): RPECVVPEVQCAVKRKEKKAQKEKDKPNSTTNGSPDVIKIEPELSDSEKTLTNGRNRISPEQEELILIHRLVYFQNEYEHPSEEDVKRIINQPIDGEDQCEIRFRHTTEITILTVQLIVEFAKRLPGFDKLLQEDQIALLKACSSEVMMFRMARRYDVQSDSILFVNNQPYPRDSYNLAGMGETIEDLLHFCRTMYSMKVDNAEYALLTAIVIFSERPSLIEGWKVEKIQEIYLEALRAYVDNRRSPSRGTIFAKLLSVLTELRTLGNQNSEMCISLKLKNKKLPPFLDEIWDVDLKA
T3 sequence (P28704 1-520 partner): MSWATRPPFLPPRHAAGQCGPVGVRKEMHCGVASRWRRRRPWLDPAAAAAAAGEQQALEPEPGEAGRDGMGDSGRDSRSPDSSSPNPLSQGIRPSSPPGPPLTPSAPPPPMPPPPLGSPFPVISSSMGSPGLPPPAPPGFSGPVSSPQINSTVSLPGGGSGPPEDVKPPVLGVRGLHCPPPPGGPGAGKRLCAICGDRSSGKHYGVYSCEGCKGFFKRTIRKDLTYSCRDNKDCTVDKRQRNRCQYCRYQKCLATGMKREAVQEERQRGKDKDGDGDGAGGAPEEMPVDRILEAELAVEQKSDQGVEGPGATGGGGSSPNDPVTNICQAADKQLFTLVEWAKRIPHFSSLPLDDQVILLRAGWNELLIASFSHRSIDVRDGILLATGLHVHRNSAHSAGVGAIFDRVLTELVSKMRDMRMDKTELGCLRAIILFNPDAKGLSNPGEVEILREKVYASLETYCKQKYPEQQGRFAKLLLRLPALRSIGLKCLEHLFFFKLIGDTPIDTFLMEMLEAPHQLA

Row | Structure (SMILES) | pEC50 [1] | pEC50 [2] | pEC50 [3] | pEC50 [4] | pEC50 [5] | pEC50 [6] | pEC50 ([2]; read-out: EC50) | pEC50 ([2]; EC50, FIG. 13A/13B, BmEcR, GAL4-EcR(DEF) with VP16-RXR-USP chimera)
1 | CC(C)(O)CC[C@@H](OC(=O)c1ccc[nH]1)[C@](C)(O)[C@H]1CC[C@@]2(O)C3=CC(=O)[C@@H]4C[C@@H](O)[C@@H](O)C[C@]4(C)[C@H]3CC[C@]12C | ~4.70 | < 4.48 | < 4.48 | ~4.82 | ~5.30 | ~4.70 | – | –
2 | CC(=O)OCC(=O)O[C@H](CCC(C)(C)O)[C@](C)(O)[C@H]1CC[C@@]2(O)C3=CC(=O)[C@@H]4C[C@@H](O)[C@@H](O)C[C@]4(C)[C@H]3CC[C@]12C [20-hydroxyecdysone 22-acetoxyacetate] | ~4.70 | < 4.48 | ~5.00 | ~4.92 | 6.12 | ~5.00 | – | –
3 | CC(C)(O)CC[C@@H](O)[C@](C)(O)[C@H]1CC[C@@]2(O)C3=CC(=O)[C@@H]4C[C@H]5OC(C)(C)O[C@H]5C[C@]4(C)[C@H]3CC[C@]12C [20-hydroxyecdysone-2,3-acetonide] | < 4.48 | < 4.48 | ~5.00 | ~4.82 | 5.54 | ~5.00 | – | –
4 | C[C@@H](CO)CC[C@@H](O)[C@](C)(O)[C@H]1CC[C@@]2(O)C3=CC(=O)[C@@H]4C[C@@H](O)[C@@H](O)C[C@]4(C)[C@H]3CC[C@]12C [(25R)-inokosterone] | 5.02 | – | ~5.00 | ~5.00 | 6.06 | ~4.70 | < 4.48 | –
5 | C[C@H](CO)CC[C@@H](O)[C@](C)(O)[C@H]1CC[C@@]2(O)C3=CC(=O)[C@@H]4C[C@@H](O)[C@@H](O)C[C@]4(C)[C@H]3CC[C@]12C [(25S)-inokosterone] | ~4.70 | – | ~5.00 | ~5.00 | ~5.82 | ~5.00 | < 4.48 | –
6 | CC(C(O)CCC(C)(C)O)C1CCC2(O)C3=CC(=O)C4CC(O)CCC4(C)C3CCC12C (centres unmarked) [Compound 2-deoxyecdysone] | < 4.48 | – | < 4.48 | < 4.48 | ~5.22 | < 4.48 | < 4.48 | –
7 | CC(C)(O)CC[C@@H](O)[C@](C)(O)[C@H]1CC[C@@]2(O)C3=C[C@H](O)[C@@H]4C[C@@H](O)[C@@H](O)C[C@]4(C)[C@H]3CC[C@]12C [Compound 6a-hydroxy-20-hydroxyecdysone] | < 4.48 | < 4.48 | < 4.48 | < 4.48 | ~5.00 | < 4.48 | – | –
8 | CC(C)(O)CC[C@@H](O)[C@](C)(O)[C@H]1CC[C@@]2(O)C3=C[C@@H](O)[C@@H]4C[C@@H](O)[C@@H](O)C[C@]4(C)[C@H]3CC[C@]12C [Compound 6b-hydroxy-20-hydroxyecdysone] | ~4.70 | < 4.48 | ~4.92 | ~4.70 | 5.77 | ~4.70 | – | –
9 | CC(=O)O[C@H](CCC(C)(C)O)[C@](C)(O)[C@H]1CC[C@@]2(O)C3=CC(=O)[C@@H]4C[C@@H](O)[C@@H](O)C[C@]4(C)[C@H]3CC[C@]12C [Compound 20-hydroxyecdysone-22-acetate] | < 4.48 | – | ~5.70 | ~5.70 | 5.61 | ~5.70 | < 4.48 | –
10 | CC(C)(O)CCC(=O)[C@](C)(O)[C@H]1CC[C@@]2(O)C3=CC(=O)[C@@H]4C[C@@H](O)[C@@H](O)C[C@]4(C)[C@H]3CC[C@]12C [Compound 22-dehydro-20-hydroxyecdysone] | ~4.70 | < 4.48 | 4.99 | ~4.92 | 5.73 | ~4.82 | – | –
11 | CC(C)(O)CC[C@@H](O)[C@](C)(O)[C@H]1CC[C@@]2(O)C3=CC(=O)[C@@H]4C[C@@H](O)[C@@H](O)C[C@]4(C)C3=CC[C@]12C [Compound 25-hydroxydacryhainansterone] | < 4.48 | < 4.48 | ~5.00 | ~4.82 | 5.90 | ~4.70 | – | –
12 | CC(C)CC[C@@H](O)[C@](C)(O)[C@H]1CC[C@@]2(O)C3=CC(=O)[C@@H]4C[C@@H](O)[C@@H](O)C[C@]4(C)[C@H]3[C@H](O)C[C@]12C [ajugasterone C] | ~5.70 | – | ~5.15 | 5.69 | 7.10 | 5.02 | – | ~5.00
13 | CC(C)(O)C(CCC(C)(O)C1CCC2(O)C3=CC(=O)C4CC(O)C(O)CC4(C)C3CCC12C)OC(=O)c1ccc[nH]1 (centres unmarked) [canescensterone] | ~6.30 | < 5.00 | < 5.00 | ~6.70 | ~6.48 | ~6.48 | – | –
14 | CC1(C)OC(=O)C=C1CC(O)C(C)(O)C1CCC2(O)C3=CC(=O)C4CC(O)C(O)CC4(C)C3CCC12C (centres unmarked) [carthamosterone] | < 4.48 | – | < 4.48 | < 4.48 | ~5.00 | < 4.48 | < 4.48 | –
15 | C[C@@H]1C(=O)O[C@H](C)[C@H]1C[C@@H](O)[C@](C)(O)[C@H]1CC[C@@]2(O)C3=CC(=O)[C@@H]4C[C@@H](O)[C@@H](O)C[C@]4(C)[C@H]3CC[C@]12C [cyasterone] | < 4.48 | – | 5.81 | ~5.00 | 5.74 | < 4.48 | – | –
